From patent US6852713B2, “Lactam derivatives and methods of their use” (Adolor Corporation, priority 2003, dated 2005) come the findings set out here.

Experiment [1] concerns the target T1, cloned human μ opioid receptor (Homo sapiens, UniProt P35372).
T1 construct: expressed in transfected cells
Kind of experiment: In vitro binding assay, inhibition of [3H]diprenorphine binding, mu. The following applies: kappa versus μ. The method, then: (§1) The potencies of the compounds of the invention were determined by testing the ability of a range of concentrations of each compound to inhibit the binding of the non-selective opioid antagonist, [^3H]diprenorphine, to the cloned human μ, κ, and δ opioid receptors, expressed in separate cell lines. IC50 values were obtained by nonlinear analysis of the data using GraphPad Prism version 3.00 for Windows (GraphPad Software, San Diego). Ki values were obtained by Cheng-Prusoff corrections of IC50 values.
(§2) The receptor binding method was a modification of the method of K. Raynor et al. (Mol. Pharmnacol. 1994, 45, 330-334). […] The filters were rinsed 4 times with 1 mL of cold 50 mM Tris HCl, pH 7.8 and radioactivity remaining on the filters determined by scintillation spectroscopy. Nonspecific binding was determined by the minimum values of the titration curves and was confirmed by separate assay wells containing 10 μM naloxone. Ki values were determined by Cheng-Prusoff corrections of IC50 values derived from nonlinear regression fits of 12 point titration curves using GraphPad Prism® version 3.00 for Windows (GraphPad Software, San Diego, Calif.).
(§3) To determine the equilibrium dissociation constant for the inhibitors (Ki), radioligand bound (cpm) in the presence of various concentrations of test compounds was measured. […]

Experiment [2] addresses T2, cloned human κ opioid receptor (Homo sapiens, UniProt P41145).
T2 construct: expressed in transfected cells
Nature of the experiment: In vitro binding assay, inhibition of [3H]diprenorphine binding, kappa. The following applies: read-out: Ki against the human kappa receptor. As for the experimental part:
as §1, §2, §3

In experiment [3] the test system is acetic acid-induced writhing. Nature of the experiment: Acetic acid-induced writhing. Format: in vivo, male CF-1 mice. The following applies: Mus musculus, po; administered orally; read-out: ED50, block of acetic acid-induced writhing. The method, then: Injection of acetic acid into the peritoneal cavity is used as the noxious stimulus, and the number of writhing responses that occur in response to acetic acid are counted in order to quantif the response to pain.
The writhing assay is adapted from the procedure originally described by Taber et al. (J. Pharmacol. Exp. Ther. 169: 29-38,1986), using male CF-1 mice weighing 20-25 g. Animals are treated with various doses of drugs prior to the administration of an i.p. injection of 0.6% acetic acid solution. Mice are then placed into observation chambers and the number of writhing responses, as defined by a full hind limb extension and retraction, are recorded.
The mean number of writhing responses is calculated for vehicle-treated control mice, and the percent inhibition (% I) of writhing is calculated for each mouse that is treated with drug using the following formula: % I=100×(mean control writhing responses−individual test responses)(mean control writhing responses) (f) Hyperalgesia Induced by Tape Stripping
(Writhing tests count abdominal constrictions after an irritant is injected.)

Experiment [4] deals with T3, cloned human δ opioid receptor (Homo sapiens, UniProt P41143).
T3 construct: expressed in transfected cells
T3 sequence (P41143 whole entry): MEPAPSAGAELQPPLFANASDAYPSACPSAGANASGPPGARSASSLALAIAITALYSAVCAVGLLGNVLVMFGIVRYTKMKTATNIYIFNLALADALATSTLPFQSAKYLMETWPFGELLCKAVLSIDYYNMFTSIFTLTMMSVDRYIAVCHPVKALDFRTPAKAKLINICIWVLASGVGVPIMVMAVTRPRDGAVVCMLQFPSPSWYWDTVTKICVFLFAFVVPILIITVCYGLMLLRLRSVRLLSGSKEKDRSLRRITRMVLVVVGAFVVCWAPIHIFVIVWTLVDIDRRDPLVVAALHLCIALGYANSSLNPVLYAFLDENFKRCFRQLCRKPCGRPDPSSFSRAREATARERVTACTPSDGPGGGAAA
Nature of the experiment: In vitro binding assay, inhibition of [3H]diprenorphine binding, delta. The following applies: kappa versus δ. The method, then: as §1, §2, §3

In experiment [5] the test system is formalin-induced flinching. Nature of the experiment: In vivo formalin-induced nociception assay. The arrangement: species or system male Sprague-Dawley rats. The following applies: dose of 100 μg, i.paw. From the text: Administration of formalin into the paw results in a localized inflammation and a pain response that is moderate in intensity and continuous in duration. Unlike many other assays of nociception, the formalin assay measures tonic pain that is a result of tissue injury, and therefore is a model which is more relevant to clinical pain states in humans (see Tjolsen et al., Pain 51: 5-17, 1992). In the rat the response to formalin-induced pain consists of spontaneous flinching behavior, characterized by paw lifting and paw shaking, and a rapid vibration of the paw after drawing it under the body. […] The early or acute phase lasts from 0-5 minutes post-formalin and is followed by a quiescent period lasting approximately 15 minutes. The tonic phase occurs from 20-35 minutes following formalin injection and is the interval where the number of flinching responses is maximal. […]
Inflammation is induced by subcutaneous injection of […] of a 5% formalin solution into the dorsal surface of the right hind paw of male Sprague-Dawley rats weighing 70-90 g. Injections of drug are given into the dorsal surface of the paw prior to formalin injection, and flinching behavior is quantitated by counting the number of responses that occur during the tonic phase of pain, lasting from 20-35 min after formalin injection. […]

Experiment [6] deals with T4, cloned human a receptors (Homo sapiens, UniProt P41145).
T4 construct: expressed in transfected cells
T4 sequence (P41145 whole entry): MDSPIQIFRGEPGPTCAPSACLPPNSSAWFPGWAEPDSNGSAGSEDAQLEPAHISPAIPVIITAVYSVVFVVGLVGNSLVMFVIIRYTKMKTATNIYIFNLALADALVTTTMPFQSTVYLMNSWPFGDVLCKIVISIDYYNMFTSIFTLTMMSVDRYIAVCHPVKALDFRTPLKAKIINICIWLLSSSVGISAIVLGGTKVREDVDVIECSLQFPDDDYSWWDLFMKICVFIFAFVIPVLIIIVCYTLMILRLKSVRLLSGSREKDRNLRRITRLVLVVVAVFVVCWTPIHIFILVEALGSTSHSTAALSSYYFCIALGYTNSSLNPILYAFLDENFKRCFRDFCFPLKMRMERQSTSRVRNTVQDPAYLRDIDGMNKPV
Kind of experiment: Stimulation of [35S]GTPγS binding to membranes (agonist potency). In kind it is biochemical. As for the experimental part: The potencies of the agonists were assessed by their abilities to stimulate [^35S]GTPγS binding to membranes containing the cloned human a receptors.
To determine the EC50 value, which was the concentration to give half-maximal stimulation of [^35S]GTPγS binding, the amount of [^35S]GTPγS bound in the presence of various concentrations of agonists was measured. The EC50 value was then determined.
(GTPγS is a poorly hydrolysed GTP analogue; its binding reports G protein activation.)

T1 sequence (P35372 whole entry): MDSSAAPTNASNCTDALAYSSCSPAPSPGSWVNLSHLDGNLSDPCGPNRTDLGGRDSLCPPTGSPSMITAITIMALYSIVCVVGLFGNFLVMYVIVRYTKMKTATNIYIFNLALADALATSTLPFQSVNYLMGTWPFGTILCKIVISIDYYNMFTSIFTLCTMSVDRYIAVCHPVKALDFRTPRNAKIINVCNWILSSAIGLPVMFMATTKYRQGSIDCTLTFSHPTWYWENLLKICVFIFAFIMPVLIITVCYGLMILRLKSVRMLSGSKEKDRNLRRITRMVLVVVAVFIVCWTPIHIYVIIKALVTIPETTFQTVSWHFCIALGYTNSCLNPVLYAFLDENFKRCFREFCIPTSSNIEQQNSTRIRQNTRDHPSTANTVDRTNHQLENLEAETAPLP
T2 sequence (P41145 whole entry): as the sequence (P41145 whole entry) above

The term Ki denotes a measure of affinity in units of concentration, obtained from inhibition or displacement. In general, ED50 refers to the midpoint of the dose-response relation. As a reminder, the EC50 is the concentration that produces a half-maximal response. A low value points to a more potent agent. As to `O=C1C(c2ccc(Cl)c(Cl)c2)CC=CCN1[C@H](CN1CCCC1)c1ccccc1` (stereo partly drawn) [Example 9, 3-(3,4-Dichloro-phenyl)-1-(1-(S)-phenyl-2-pyrrolidin-1-yl-ethyl)-1,3,4,7-tetrahydro-azepin-2-one], the “selectivity versus the human μ receptor” value in experiment [1] is reported as greater than 100 ×. Also, the Ki in experiment [2] was found to be 1 nM. Besides, the ED50 in experiment [3] was less than 30 mg/kg. Moreover, the “selectivity versus the human δ receptor” value in experiment [4] is reported as greater than 100 ×. The “% A (percent antagonism of formalin-induced flinching)” value in experiment [5] is reported as greater than 80%. In experiment [6], this compound had an EC50 of 2.5 nM.
